Experimental data from PubChem BioAssay (NCI).
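Results reflect a 48-hour exposure of cells in 96-well plates to compound at five concentrations. Definition used: TGI = concentration required for complete inhibition of growth.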

Assays:
Assay in all cases: DTP human tumour cell line panel, 48 h
786-0 renal = system: 786-0 renal
A498 renal = system: A498 renal
A549 NSCLC = system: A549 NSCLC
ACHN renal = system: ACHN renal
BT-549 breast = system: BT-549 breast
CAKI-1 renal = system: CAKI-1 renal
CCRF-CEM leukemia = system: CCRF-CEM leukemia
COLO 205 colon = system: COLO 205 colon
DU-145 prostate = system: DU-145 prostate
EKVX NSCLC = system: EKVX NSCLC
HCC-2998 colon = system: HCC-2998 colon
HCT-116 colon = system: HCT-116 colon
HCT-15 colon = system: HCT-15 colon
HL-60(TB) leukemia = system: HL-60(TB) leukemia
HOP-62 NSCLC = system: HOP-62 NSCLC
HOP-92 NSCLC = system: HOP-92 NSCLC
HS 578T breast = system: HS 578T breast
HT29 colon = system: HT29 colon
IGROV1 ovarian = system: IGROV1 ovarian
K-562 leukemia = system: K-562 leukemia
KM12 colon = system: KM12 colon
LOX IMVI melanoma = system: LOX IMVI melanoma
M14 melanoma = system: M14 melanoma
MCF7 breast = system: MCF7 breast
MDA-MB-435 = system: MDA-MB-435
MDA-N = system: MDA-N
MOLT-4 leukemia = system: MOLT-4 leukemia
NCI-H23 lung = system: NCI-H23 lung
NCI-H460 lung = system: NCI-H460 lung
NCI-H522 lung = system: NCI-H522 lung
NCI/ADR-RES ovarian = system: NCI/ADR-RES ovarian
OVCAR-3 ovarian = system: OVCAR-3 ovarian
OVCAR-4 ovarian = system: OVCAR-4 ovarian
OVCAR-5 ovarian = system: OVCAR-5 ovarian
PC-3 prostate = system: PC-3 prostate
RPMI-8226 leukemia = system: RPMI-8226 leukemia
RXF 393 renal = system: RXF 393 renal
SF-268 CNS = system: SF-268 CNS
SF-295 CNS = system: SF-295 CNS
SK-MEL-28 melanoma = system: SK-MEL-28 melanoma
SK-MEL-5 melanoma = system: SK-MEL-5 melanoma
SN12C renal = system: SN12C renal
SNB-19 CNS = system: SNB-19 CNS
SR leukemia = system: SR leukemia
SW-620 colon = system: SW-620 colon
U251 CNS = system: U251 CNS
UACC-257 melanoma = system: UACC-257 melanoma
UACC-62 melanoma = system: UACC-62 melanoma
UO-31 renal = system: UO-31 renal
MALME-3M melanoma = system: MALME-3M melanoma
MDA-MB-231 breast = system: MDA-MB-231 breast
NCI-H226 lung = system: NCI-H226 lung
OVCAR-8 ovarian = system: OVCAR-8 ovarian
SF-539 CNS = system: SF-539 CNS
SK-MEL-2 melanoma = system: SK-MEL-2 melanoma
SK-OV-3 ovarian = system: SK-OV-3 ovarian
T-47D breast = system: T-47D breast
TK-10 renal = system: TK-10 renal

Structure (SMILES): Cc1cccc(Nc2cn(COCc3ccccc3)c(=O)[nH]c2=O)c1
- TGI (786-0 renal): > 100 µM
- TGI (A498 renal): > 100 µM
- TGI (A549 NSCLC): > 100 µM
- TGI (ACHN renal): > 100 µM
- TGI (BT-549 breast): > 100 µM
- TGI (CAKI-1 renal): > 100 µM
- TGI (CCRF-CEM leukemia): > 100 µM
- TGI (COLO 205 colon): > 100 µM
- TGI (DU-145 prostate): > 100 µM
- TGI (EKVX NSCLC): > 100 µM
- TGI (HCC-2998 colon): > 100 µM
- TGI (HCT-116 colon): > 100 µM
- TGI (HCT-15 colon): > 100 µM
- TGI (HL-60(TB) leukemia): > 100 µM
- TGI (HOP-62 NSCLC): 86.3 µM
- TGI (HOP-92 NSCLC): > 100 µM
- TGI (HS 578T breast): > 100 µM
- TGI (HT29 colon): > 100 µM
- TGI (IGROV1 ovarian): > 100 µM
- TGI (K-562 leukemia): > 100 µM
- TGI (KM12 colon): > 100 µM
- TGI (LOX IMVI melanoma): > 100 µM
- TGI (M14 melanoma): > 100 µM
- TGI (MCF7 breast): > 100 µM
- TGI (MDA-MB-435): > 100 µM
- TGI (MDA-N): > 100 µM
- TGI (MOLT-4 leukemia): > 100 µM
- TGI (NCI-H23 lung): > 100 µM
- TGI (NCI-H460 lung): > 100 µM
- TGI (NCI-H522 lung): 97.2 µM
- TGI (NCI/ADR-RES ovarian): 90 µM
- TGI (OVCAR-3 ovarian): > 100 µM
- TGI (OVCAR-4 ovarian): > 100 µM
- TGI (OVCAR-5 ovarian): > 100 µM
- TGI (PC-3 prostate): > 100 µM
- TGI (RPMI-8226 leukemia): > 100 µM
- TGI (RXF 393 renal): > 100 µM
- TGI (SF-268 CNS): > 100 µM
- TGI (SF-295 CNS): > 100 µM
- TGI (SK-MEL-28 melanoma): > 100 µM
- TGI (SK-MEL-5 melanoma): > 100 µM
- TGI (SN12C renal): > 100 µM
- TGI (SNB-19 CNS): > 100 µM
- TGI (SR leukemia): > 100 µM
- TGI (SW-620 colon): > 100 µM
- TGI (U251 CNS): > 100 µM
- TGI (UACC-257 melanoma): > 100 µM
- TGI (UACC-62 melanoma): > 100 µM
- TGI (UO-31 renal): > 100 µM

Structure (SMILES): COc1ccc(C2SCC(=O)N2c2ccc(-c3ccc(-n4c(-c5ccccc5)nc5ccccc5c4=O)cc3)cc2)cc1 (stereo unspecified)
- TGI (786-0 renal): > 100 µM
- TGI (A498 renal): > 100 µM
- TGI (A549 NSCLC): > 100 µM
- TGI (ACHN renal): > 100 µM
- TGI (BT-549 breast): > 100 µM
- TGI (CAKI-1 renal): > 100 µM
- TGI (CCRF-CEM leukemia): > 100 µM
- TGI (COLO 205 colon): > 100 µM
- TGI (DU-145 prostate): > 100 µM
- TGI (EKVX NSCLC): > 100 µM
- TGI (HCC-2998 colon): > 100 µM
- TGI (HCT-116 colon): > 100 µM
- TGI (HCT-15 colon): > 100 µM
- TGI (HL-60(TB) leukemia): > 100 µM
- TGI (HOP-62 NSCLC): > 100 µM
- TGI (HOP-92 NSCLC): > 100 µM
- TGI (HS 578T breast): > 100 µM
- TGI (HT29 colon): 30.5 µM
- TGI (IGROV1 ovarian): > 100 µM
- TGI (K-562 leukemia): > 100 µM
- TGI (KM12 colon): 79.8 µM
- TGI (LOX IMVI melanoma): > 100 µM
- TGI (M14 melanoma): > 100 µM
- TGI (MALME-3M melanoma): > 100 µM
- TGI (MCF7 breast): > 100 µM
- TGI (MDA-MB-231 breast): > 100 µM
- TGI (MDA-MB-435): > 100 µM
- TGI (MDA-N): > 100 µM
- TGI (MOLT-4 leukemia): > 100 µM
- TGI (NCI-H226 lung): > 100 µM
- TGI (NCI-H23 lung): > 100 µM
- TGI (NCI-H460 lung): > 100 µM
- TGI (NCI-H522 lung): > 100 µM
- TGI (NCI/ADR-RES ovarian): > 100 µM
- TGI (OVCAR-3 ovarian): 46.8 µM
- TGI (OVCAR-4 ovarian): > 100 µM
- TGI (OVCAR-5 ovarian): 87.2 µM
- TGI (OVCAR-8 ovarian): > 100 µM
- TGI (PC-3 prostate): > 100 µM
- TGI (RPMI-8226 leukemia): > 100 µM
- TGI (SF-268 CNS): > 100 µM
- TGI (SF-295 CNS): > 100 µM
- TGI (SF-539 CNS): > 100 µM
- TGI (SK-MEL-2 melanoma): 86.7 µM
- TGI (SK-MEL-28 melanoma): > 100 µM
- TGI (SK-MEL-5 melanoma): > 100 µM
- TGI (SK-OV-3 ovarian): > 100 µM
- TGI (SN12C renal): > 100 µM
- TGI (SNB-19 CNS): > 100 µM
- TGI (SR leukemia): > 100 µM
- TGI (SW-620 colon): > 100 µM
- TGI (T-47D breast): > 100 µM
- TGI (TK-10 renal): > 100 µM
- TGI (U251 CNS): > 100 µM
- TGI (UACC-257 melanoma): > 100 µM
- TGI (UACC-62 melanoma): > 100 µM
- TGI (UO-31 renal): > 100 µM
